Results on 3 molecules are retold here after PubChem BioAssay (NCI).

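Cells were grown in 96-well plates and exposed to each compound for 48 hours at five concentrations; endpoints were interpolated linearly between bracketing concentrations, or set to the highest concentration if not reached. GI50: concentration for 50% inhibition of growth. The concentration for full growth arrest is given as TGI.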 A value given as a limit tells only on which side of the number the result lay.

Some test systems named below: SF-268 CNS; OVCAR-8 ovarian; HS 578T breast; U251 CNS; SN12C renal; EKVX NSCLC; A498 renal; MCF7 breast; HL-60(TB) leukemia; HCT-116 colon.
Common to all, as to assay: NCI tumour cell line growth inhibition, 48 h

With `C[C@@H]1COCCN1c1nc(-c2cnc(N)cc2C(F)F)nc(N2[C@H](C)COC[C@@H]2C)n1`, the GI50 is 356 nM in the assay on SF-268 CNS; 367 nM in the assay with OVCAR-8 ovarian; 128 nM in the assay with HS 578T breast; 355 nM in the assay with U251 CNS; 302 nM in the assay on SN12C renal; 210 nM with EKVX NSCLC. Besides, the GI50 in the assay on A498 renal was 50.7 nM; in the assay with MCF7 breast, 115 nM; in the assay with HL-60(TB) leukemia, 863 nM; in the assay on HCT-116 colon it was 485 nM. Further, the TGI in the assay with SF-268 CNS was determined as 16100 nM; in the assay on OVCAR-8 ovarian, 21400 nM; in the assay on HS 578T breast, 611 nM; in the assay on U251 CNS, 13700 nM; with SN12C renal, 15900 nM; with EKVX NSCLC it was 5770 nM. The TGI came to 345 nM in the assay on A498 renal, 11400 nM in the assay with MCF7 breast, 19500 nM in the assay on HL-60(TB) leukemia and 14500 nM with HCT-116 colon.

Turning to `Nc1nc2c(c3ncccc13)C(c1ccc(Cl)c(Cl)c1)Cc1ncccc1-2` (stereo not given), the GI50 in the assay with SF-268 CNS is 5140 nM; in the assay on OVCAR-8 ovarian, 4240 nM; in the assay on HS 578T breast, 3620 nM; with U251 CNS, 3780 nM; in the assay on SN12C renal it was 6710 nM; with EKVX NSCLC it was 4860 nM. For the same molecule, the GI50 was 1930 nM in the assay with A498 renal, 2990 nM in the assay with MCF7 breast, 3090 nM in the assay on HL-60(TB) leukemia and 3710 nM in the assay with HCT-116 colon. The TGI in the assay on SF-268 CNS was found to be 23400 nM; with OVCAR-8 ovarian, 36500 nM; in the assay on HS 578T breast, 19200 nM; in the assay with U251 CNS it was 13900 nM; with SN12C renal it was 24800 nM; with EKVX NSCLC it was 18400 nM. For the same molecule, the TGI worked out at 5850 nM in the assay with A498 renal, 14200 nM with MCF7 breast, 16200 nM in the assay with HL-60(TB) leukemia and 14100 nM in the assay with HCT-116 colon.

For `OCc1cccc(-c2ccc3ncc(-c4nc(NC5CC5)ncc4F)n3c2)c1`, the GI50 was 275 nM with SF-268 CNS; 301 nM in the assay on OVCAR-8 ovarian; 212 nM in the assay with HS 578T breast; 250 nM in the assay on U251 CNS; 281 nM in the assay with SN12C renal; 296 nM in the assay with EKVX NSCLC. Further, the GI50 was 152 nM in the assay with A498 renal, 308 nM in the assay on MCF7 breast, 243 nM in the assay with HL-60(TB) leukemia and 182 nM in the assay with HCT-116 colon. Moreover, the TGI is 801 nM in the assay on SF-268 CNS; more than 100000 nM with OVCAR-8 ovarian; 701 nM with HS 578T breast; more than 100000 nM in the assay with U251 CNS; 1570 nM in the assay with SN12C renal; 946 nM in the assay with EKVX NSCLC. In addition, the TGI in the assay on A498 renal was 367 nM; in the assay on MCF7 breast, 1190 nM; in the assay on HL-60(TB) leukemia, 708 nM; in the assay with HCT-116 colon, more than 100000 nM.
